Test system: db/db mice
Assay: Antidiabetic effects in db/db mice (serum chemistry after 2 weeks of daily oral dosing)
Assay type: in vivo
From the text: Db/db mice have a defect in leptin signaling, leading to hyperphagia, obesity and diabetes. Moreover, unlike ob/ob mice on a C57BL/6J background, db/db mice on a C57BLKS background undergo failure of their insulin-producing pancreatic islet cells, resulting in progression from hyperinsulinemia (associated with peripheral insulin resistance) to hypoinsulinemic diabetes.
Male obese (db/db homozygote) C57BL/Ksola mice approximately 8 weeks of age, were obtained from Jackson Labs (Bar Harbor, Me.) and randomly assigned into groups of 5-7 animals such that the body weights (40-45 g) and serum glucose levels (≧300 mg/dl in fed state) were similar between groups; male lean (db/+heterozygote) mice served as cohort controls. A minimum of 7 days was allowed for adaptation after arrival. All animals were maintained under controlled temperature (23° C.), relative humidity (50±5%) and light (7:0-19:00), and allowed free access to standard chow (Formulab Diet 5008, Quality Lab Products, Elkridge, Md.) and water.
Mice received daily oral doses of vehicle or Compound DP (100 mg/kg/day) for 2 weeks. At the end of the treatment period 100 μl of venous blood was withdrawn in a heparinized capillary tube from the retro-orbital sinus for serum chemistry analysis.

[1] = db/db mice, after 2 weeks of daily oral dosing, 100 mg/kg/day

Cc1cccc(C)c1C(=O)Oc1cccc(C(=O)CCC(=O)O)c1 [Compound DP, 4-(3-(2,6-Dimethylbenzoyloxy)phenyl)-4-oxobutanoic acid]
reduction in serum glucose (in words) [1]: significant reduction
reduction in serum triglycerides (in words) [1]: significant reduction
Triglycerides (serum) (male db/db C57BL/Ksola mice, 100 mg/kg/day oral, 2 weeks, vehicle 388.0 ± 50.7, lean 96.4 ± 6.4, *p < 0.05 vs vehicle-control): 140.8 ± 20.6* mg/dL
Glucose (serum) (male db/db C57BL/Ksola mice, 100 mg/kg/day oral, 2 weeks, vehicle 752.9 ± 46.0, lean 212.6 ± 15.3, *p < 0.05 vs vehicle-control): 264.3 ± 96.8* mg/dL
